BindingDB's records for doi:10.1016/s0960-894x(00)00030-5 (Yoshitomi Pharmaceutical Industries, 2000)
pKi: −log10 of the molar value.

Target: D(2) dopamine receptor (Homo sapiens, UniProt P14416)
Test: ChEBML_61120
Source text: Binding affinity for Dopamine receptor D2 by displacement of [3H]-spiperone

Sequence of D(2) dopamine receptor (P14416 whole entry): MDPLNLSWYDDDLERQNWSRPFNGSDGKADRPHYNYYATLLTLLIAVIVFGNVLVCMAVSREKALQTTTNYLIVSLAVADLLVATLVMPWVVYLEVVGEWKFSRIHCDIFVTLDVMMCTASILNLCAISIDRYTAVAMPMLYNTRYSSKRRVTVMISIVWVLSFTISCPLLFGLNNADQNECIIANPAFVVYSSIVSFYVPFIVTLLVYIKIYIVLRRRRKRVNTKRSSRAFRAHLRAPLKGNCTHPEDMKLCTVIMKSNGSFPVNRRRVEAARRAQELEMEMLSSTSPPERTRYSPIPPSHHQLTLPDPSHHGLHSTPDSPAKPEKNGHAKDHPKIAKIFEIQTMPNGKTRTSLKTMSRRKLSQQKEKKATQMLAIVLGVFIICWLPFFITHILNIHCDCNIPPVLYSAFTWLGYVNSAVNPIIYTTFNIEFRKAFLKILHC

SMILES | pKi
CN1CCOc2c(C(=O)NC[C@@H]3CCCN3CCc3ccccc3)cc(Cl)cc21 [6-Chloro-4-methyl-3,4-dihydro-2H-benzo[1,4]oxazine-8-carboxylic acid ((S)-1-phenethyl-pyrrolidin-2-ylmethyl)-amide] | 6.10
CN1CCOc2c(C(=O)NC[C@H]3CCCN3CCc3ccccc3)cc(Cl)cc21 [6-Chloro-4-methyl-3,4-dihydro-2H-benzo[1,4]oxazine-8-carboxylic acid ((R)-1-phenethyl-pyrrolidin-2-ylmethyl)-amide] | 7.24
